Experimental findings from PubChem BioAssay (NCI) are described below.

Test systems include 786-0 renal; HCC-2998 colon; UO-31 renal; NCI-H522 lung; OVCAR-3 ovarian; NCI-H460 lung; SK-MEL-5 melanoma; OVCAR-8 ovarian; T-47D breast; SW-620 colon.
Holding throughout (experiment): inhibition of tumour cell growth, NCI panel, 48 h

Molecules are shown by their SMILES.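 1) Cells in 96-well plates. 2) Compound, 48 h, 5 concentrations. 3) Linear interpolation between surrounding doses. 4) Unreached endpoint = highest concentration. Abbreviation: GI50, concentration required for 50% inhibition of growth. TGI denotes the concentration required for complete inhibition of growth.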

On to `CCCNc1nc(-c2ccc(OC)cc2)nc2ccccc12`, for which the GI50 with 786-0 renal was 13.7 µM; with HCC-2998 colon, 13.6 µM; with UO-31 renal it was 19.1 µM; with NCI-H522 lung it was 22.3 µM; in the test on OVCAR-3 ovarian, 11.8 µM; in the test with NCI-H460 lung, 10.5 µM. The results for the GI50 in the test with SK-MEL-5 melanoma, in the test on OVCAR-8 ovarian and in the test with T-47D breast were 12.5 µM, 25 µM and 31.4 µM, respectively. Further, the TGI is 33 µM in the test on 786-0 renal; 34.4 µM with HCC-2998 colon; greater than 100 µM with UO-31 renal; greater than 100 µM in the test on NCI-H522 lung; 26.9 µM in the test with OVCAR-3 ovarian; 44 µM in the test on NCI-H460 lung. The TGI in the test with SK-MEL-5 melanoma was 27.7 µM; in the test on OVCAR-8 ovarian, 95 µM; with T-47D breast, greater than 100 µM.
Consider `O=C(NC(=S)NS(=O)(=O)c1ccc(N2N=C3c4ccccc4CC3C2c2cccs2)cc1)c1ccccc1` (stereo not given), for which the GI50 was 27.9 µM in the test with 786-0 renal; 41.1 µM in the test with UO-31 renal; 20.5 µM in the test on NCI-H522 lung; 30.6 µM in the test with OVCAR-3 ovarian; greater than 100 µM with NCI-H460 lung; 16.9 µM with SK-MEL-5 melanoma. The GI50 is 20.3 µM in the test with OVCAR-8 ovarian, 69.6 µM with T-47D breast and 34.8 µM in the test with SW-620 colon. The TGI with 786-0 renal is greater than 100 µM; in the test on UO-31 renal, greater than 100 µM; in the test on NCI-H522 lung, 80.9 µM; with OVCAR-3 ovarian, greater than 100 µM; in the test on NCI-H460 lung it was greater than 100 µM; in the test with SK-MEL-5 melanoma, 46.5 µM. Moreover, the TGI in the test on OVCAR-8 ovarian, in the test on T-47D breast and with SW-620 colon was greater than 100 µM in each case.
Take `O=C(/C=N/O)c1c(-c2ccccc2)[nH]c(-c2ccccc2)c1-c1ccccc1`: the TGI is greater than 100 µM with 786-0 renal; 58.1 µM in the test on HCC-2998 colon; 36.3 µM with UO-31 renal; 30.8 µM with NCI-H522 lung; 58.7 µM in the test on OVCAR-3 ovarian; 41.8 µM in the test on NCI-H460 lung. The TGI in the test with SK-MEL-5 melanoma is 32.8 µM; with T-47D breast, greater than 100 µM; in the test with SW-620 colon it was 48.7 µM.
Turning to `O=c1c2ccccc2nc(-c2ccc(Cl)cc2)n1O`, the TGI with 786-0 renal was 94.4 µM; in the test with UO-31 renal, 5.79 µM; in the test with NCI-H522 lung, 57 µM; in the test on OVCAR-3 ovarian it was greater than 100 µM; in the test with NCI-H460 lung, greater than 100 µM; with SK-MEL-5 melanoma, greater than 100 µM. For the same compound, the TGI in the test on OVCAR-8 ovarian is 48.4 µM; in the test on T-47D breast, greater than 100 µM; with SW-620 colon it was greater than 100 µM.
For the compound `N#C/C(=C/N1CCN(C(=O)c2ccco2)C1=S)C(N)=O`, the GI50 in the test with 786-0 renal was 18 µM; with UO-31 renal, 23.5 µM; with NCI-H522 lung it was 18.7 µM; with OVCAR-3 ovarian, 19 µM; in the test with NCI-H460 lung it was 3.99 µM; with SK-MEL-5 melanoma, 16.5 µM. The GI50 in the test with OVCAR-8 ovarian is 43.7 µM; in the test with T-47D breast, 9.32 µM; in the test with SW-620 colon, 22.1 µM. Moreover, the TGI turned out to be 46.9 µM in the test with 786-0 renal; 51.8 µM with UO-31 renal; 44.2 µM in the test with NCI-H522 lung; 59.8 µM in the test on OVCAR-3 ovarian; 50.7 µM in the test on NCI-H460 lung; 38.9 µM in the test with SK-MEL-5 melanoma. The TGI in the test with OVCAR-8 ovarian is greater than 100 µM; in the test with T-47D breast, greater than 100 µM; in the test with SW-620 colon, 81.7 µM.
For `COc1ccc2c(CNCCCCO)cc3cc4c(cc3c2c1)OCO4`, the GI50 is 1.63 µM in the test with 786-0 renal; 1.66 µM with HCC-2998 colon; 0.21 µM with UO-31 renal; 0.228 µM in the test with NCI-H522 lung; 0.984 µM with OVCAR-3 ovarian; 0.818 µM in the test on SK-MEL-5 melanoma. For the same compound, the GI50 with OVCAR-8 ovarian is 0.341 µM; with T-47D breast, 3.71 µM; in the test on SW-620 colon, 0.228 µM. In addition, the TGI with 786-0 renal is greater than 32.2 µM; in the test on HCC-2998 colon, 6.57 µM; with UO-31 renal, 4.12 µM; with NCI-H522 lung, 2.93 µM; in the test on OVCAR-3 ovarian, 4.95 µM; with SK-MEL-5 melanoma, 2.13 µM. In addition, the TGI in the test on OVCAR-8 ovarian is 6.68 µM; with T-47D breast it was greater than 46.7 µM; with SW-620 colon, 2.35 µM.
In the case of `COC(=O)c1oc2c(C(=O)/C=C/c3ccc(OC)cc3)c(OCCCN3CCCCC3)ccc2c1C`, the GI50 was 1.49 µM in the test on 786-0 renal; 1.6 µM with UO-31 renal; 1.6 µM in the test with NCI-H522 lung; 1.63 µM in the test on OVCAR-3 ovarian; 1.54 µM in the test with NCI-H460 lung; 1.72 µM with SK-MEL-5 melanoma. In addition, the GI50 with OVCAR-8 ovarian was 1.67 µM; in the test on T-47D breast it was 1.42 µM; in the test on SW-620 colon, 1.38 µM. Besides, the TGI in the test on 786-0 renal came out at 3.11 µM; in the test with UO-31 renal it was 4.55 µM; in the test on NCI-H522 lung, 3.6 µM; in the test on OVCAR-3 ovarian it was 3.72 µM; in the test on NCI-H460 lung, 3.18 µM; in the test on SK-MEL-5 melanoma it was 3.17 µM. Further, the TGI in the test with OVCAR-8 ovarian was 4.23 µM; with T-47D breast it was 4.89 µM; with SW-620 colon it was 3.03 µM.
Regarding `NCCOc1ccccn1`, the TGI with 786-0 renal, in the test on UO-31 renal, in the test with NCI-H522 lung, in the test with OVCAR-3 ovarian, with NCI-H460 lung and in the test with SK-MEL-5 melanoma was greater than 100 µM throughout. The TGI with OVCAR-8 ovarian, in the test on T-47D breast and with SW-620 colon was greater than 100 µM throughout.
On to `O=C(CC1C(=O)Nc2ccccc2S1=O)Nc1cccc(Cl)c1` (stereo not given), for which the TGI was greater than 100 µM in the test on 786-0 renal; greater than 100 µM in the test on HCC-2998 colon; greater than 89.8 µM with UO-31 renal; greater than 79.2 µM with OVCAR-3 ovarian; greater than 83.2 µM in the test on NCI-H460 lung; greater than 46.1 µM in the test with SK-MEL-5 melanoma. For the same compound, the TGI is greater than 71.9 µM in the test with OVCAR-8 ovarian, 42.7 µM in the test with T-47D breast and greater than 100 µM in the test on SW-620 colon.
For the compound `CC(=O)Nc1ccc(C(=O)N[C@@H]2C(=O)N3[C@@H]2SC(C)(C)[C@@H]3C(=O)O)cn1`, the TGI in the test on 786-0 renal, in the test with HCC-2998 colon, in the test on UO-31 renal, in the test on OVCAR-3 ovarian, with NCI-H460 lung and in the test on SK-MEL-5 melanoma was greater than 100 µM each time. The TGI in the test on OVCAR-8 ovarian, in the test with T-47D breast and in the test on SW-620 colon was greater than 100 µM throughout.
